Measured values taken from patent publication US11999782B2, “Therapeutic agents for the treatment of diseases associated with undesired cell proliferation” (Fundació Privada Institutció Catalana de Recerca I Estudis …, priority 2009, dated 2024).

Columns and labels:
[1] = test system: STAT3 phosphorylation (JAK-STAT pathway); assay: p-STAT3 Western blotting in GBM1 neurospheres; format: cell-based, human
Method: FIG. 5. TGFβ induces the LIF-JAK-STAT pathway in GEM neurospheres derived from patients. (A) The levels of p-STAT3 and STAT3 were determined by means of Western blotting of neurospheres of the sample of GBM1 treated with 20 ng/ml LIF for the indicated time periods. (B) The neurospheres of the sample of GBM1 were treated with 20 ng/ml LIF and/or 0.5 pM P6 for 15 minutes and the levels of total p-STAT3 and STAT3 were determined by means of Western blotting. (C) The neurospheres of the sample of GBM1 were treated with 100 pM TGFβ1 or the 2 pM TβRI inhibitor for 4 hours in the absence of EFG and FGF and the levels of p-STAT3, STAT3, p-Smad2, Smad2 and α-tubulin were determined by means of Western blotting. (D) the neurospheres of the sample of GBM1 were treated with 100 pM TGFβ1, 0.5 μM P6 or the blocking antibody against LIF for 4 hours in the absence of EGF and FGF and the levels of total p-STAT3 and STAT3 were determined by means of Western blotting.
Genomic DNA of U373MG was used to amplify the −634/+32 region of the human LIF promoter which was cloned into the pGL2-basic luciferase vector. The deletion constructs (−267/+32), and (−73/+32) were generated by means of digestion of the construct (−634/+32). Two point mutations were introduced in positions −183 bp and −184 bp in the construct (−267/+32) to interrupt the Smad binding element (SBE) and generate the construct (−267/+32) mutSBE. TGFβ1, TGFβ2, TGFβ3 (R&D Systems), TβRI inhibitor (SB431542, Tocris), LIF (Chemicon), the neutralizing antibodies against LIF (R&D), JAK inhibitor (tetracyclic pyridone 6 (P6) Calbiochem), the assembly of SMART siRNAs targeted to Smad2, Smad3 and Smad4 (Dharmacon), and the control siRNA siGlo (Dharmacon) were used at the indicated concentrations. The antibodies specific against p-Smad2, Smad2, p-STAT3 (p-Tyr705) and total STAT3 (Cell Signalling) and against Smad2, Smad3 and Smad4 (Hata et al., (2000) Cell 100, 229-240) were used for Western blotting.
In order to distinguish whether the LIF signaling pathway is functional in GEM neurospheres, the neurospheres were treated with recombinant LIF and the levels of phosphorylation of the downstream substrate of the LIF receptor complex, STAT3, were determined. […] Furthermore, the induction of p-STAT3 was prevented by the presence of a pharmacological JAK-specific, tetracyclic pyridone 6 (P6) (Pedranzini et al., 2006, Cancer Res, 66: 9714-9721; Thompson et al., 2002, Bioorg Med Chem Lett, 12:1219-1223) (FIG. 5B). […] It was decided to assess whether LIP was mediating the induction of p-STAT3 by TGFβ. For this purpose, a neutralizing antibody against LIF was used to specifically block the effect of secreted LIP on cells treated with TGFβ. The presence of the neutralizing antibody of LIP decreased the induction of p-STAT3 by TGFβ. Furthermore, the levels of p-STAT3 in cells treated with TGFβ were repressed by means of the treatment with P6 (FIG. 5D).

[2] = test system: GICs (glioma initiating cells) / GBM neurospheres; assay: Self-renewal assay of GBM neurospheres (GICs derived from patients); format: cell-based, human; conditions: added with 100 pM TGFβ1; 2 μM TβRI inhibitor, anti-LIF neutralizing antibody or 0.5 pM P6; absence of EGF and FGF
Method: FIG. 1. Effect of TGFβ on the self-renewal of GIC derived from patients. (A) Representative images of PCTCs and neurospheres of GBM generated from samples of 3 different patients with GBM (GBM1, GBM2, GBM3). (B) Musashi-1 (Msi-1), Sox2, Nestin and β-actin were determined by means of RT-PCR analysis of PCTCs and neurospheres of 3 samples of human GBM. (C) 100,000 neurosphere (nsph.) or PCTC cells obtained from samples of GBM1, GBM2 and GBM3 tumors were intracranially inoculated in three Balbc nu/nu mice in each case. Magnetic resonance imaging (MRI) studies were performed on days 30-40 in each mouse. The images represent an example of mice inoculated with neurosphere or PCTC cells obtained from GBM1. The mice were weighed twice a week. The graph represents mice inoculated with cells derived from GBM1. (D and E) Neurosphere cells of the indicated GBMs were incubated in the absence of growth factors with 100 pM TGFβ1 and/or 2 μM TβRI inhibitor for 7 days and the number of newly formed neurospheres (D) and the total number of cells (E) were determined. (F) Representative images of GBM1 neurospheres treated as indicated in D and E.
FIG. 6. LIF mediates the increase of self-renewal of GIC by TGFβ. (A, B) GBM1, GBM2 and GBM3 neurosphere cells were treated with 100 pM TGFβ1, 20 ng/ml LIF and/or anti-LIF neutralizing antibody and 0.5 pM P6 in the absence of EGF and FGF and the number of newly formed neurospheres (A) or the total number of cells (B) was determined. (C) Representative images of GBM1 neurospheres treated as indicated in A and B.
The self-renewal of the neurospheres was evaluated by seeding an identical number of cells at a very low density in wells of a 96-well plate. The cells were treated, in the absence of growth factors, with the indicated compounds and the total number of new neurospheres formed after 7 days in culture was counted (Lee et al. (2008) Cancer Cell 13, 69-80; Reynolds and Weiss, (1996) Dev Biol 175, 1-13; Seaberg and van der Kooy, (2002) J Neurosci 22, 1784-1793).
It was decided to evaluate the effect of TGFβ on the capacity for self-renewal of GICs following a well described protocol based on the capacity of GICs to generate neurospheres (Reynolds and Weiss, 1996, Dev Biol. 175:1-13; Seaberg and van der Kooy, 2002, J Neurosci 22:1784-1793). The neurospheres derived from patients were disassociated into individual cells, treated with TGFβ or left untreated for 7 days in the absence of growth factors and the newly formed neurospheres and the total number of cells were counted. Following this protocol, the effect of TGFβ on the capacity for self-renewal of the GICs derived from three different patients was evaluated. […] These effects were blocked when an TGFβ I receptor inhibitor (TβRI) was added at the same time as TGFβ.
It was decided to assess whether LIF and JAK-STAT pathway mediated the increase of self-renewal of GICs by TGFβ. For this purpose, the neutralizing antibody against LIP and P6 was used to specifically block the effect of the secreted LIP on cells treated with TGFβ. The neurospheres were disassociated into individual cells and were treated with TGFβ, recombinant LIF, anti-LIF antibody and/or P6. The newly formed neurospheres and the total number of cells were counted. […] The treatment with the neutralizing antibody of LIP decreased the induction of the self-renewal of GICs by TGFβ.

## CC(C)(C)c1nc2c3ccc(F)cc3c3c(=O)[nH]ccc3c2[nH]1 [P6, tetracyclic pyridone 6]
[1]; 100 pM TGFβ1, 4 hours, absence of EGF and FGF, 2 pM TβRI inhibitor, 0.5 μM P6 or blocking antibody against LIF
  effect on the induction of p-STAT3 by TGFβ: repressed
[1]; 20 ng/ml LIF and 0.5 pM P6, 15 minutes
  effect on the induction of p-STAT3 by LIF: prevented
[2]
  effect on the induction of self-renewal of GICs by TGFβ (number of neurospheres, total number of cells): repressed
